PubChem BioAssay AID248 (DTP/NCI, 2004)
Inconclusive results and toxic doses are left out.

Tested on: L1210 leukemia ip in BDF1 mice, survival T/C
Assay: NCI In Vivo Anticancer Drug Screen. Data for tumor model L1210 Leukemia (intraperitoneal) in B6D2F1 (BDF1) mice
Conditions: endpoint: mean survival time, higher = longer survival
Summary of the method: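 Read-out is survival time, reported as the treated-group measurement over the vehicle-control measurement.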

[1] = dose: 100.0 mg/kg/injection, schedule: Q01DX001 (ip), vehicle: carboxymethylcellulose (CMC)
[2] = dose: 200.0 mg/kg/injection, schedule: Q01DX001 (ip), vehicle: carboxymethylcellulose (CMC)
[3] = dose: 400.0 mg/kg/injection, schedule: Q01DX001 (ip), vehicle: carboxymethylcellulose (CMC)
[4] = dose: 100.0 mg/kg/injection, schedule: Q04DX003 (ip), vehicle: saline
[5] = dose: 200.0 mg/kg/injection, schedule: Q04DX003 (ip), vehicle: saline
[6] = dose: 400.0 mg/kg/injection, schedule: Q04DX003 (ip), vehicle: saline
[7] = dose: 100.0 mg/kg/injection, schedule: Q04DX002 (ip), vehicle: saline with Tween-80
[8] = dose: 200.0 mg/kg/injection, schedule: Q04DX002 (ip), vehicle: saline with Tween-80
[9] = dose: 400.0 mg/kg/injection, schedule: Q01DX001 (ip), vehicle: saline
[10] = dose: 100.0 mg/kg/injection, schedule: Q01DX001 (ip), vehicle: saline
[11] = dose: 100.0 mg/kg/injection, schedule: Q01DX009 (ip), vehicle: Klucel (hydroxypropylcellulose) (HPC)
[12] = dose: 200.0 mg/kg/injection, schedule: Q01DX009 (ip), vehicle: Klucel (hydroxypropylcellulose) (HPC)
[13] = dose: 400.0 mg/kg/injection, schedule: Q01DX009 (ip), vehicle: Klucel (hydroxypropylcellulose) (HPC)
[14] = dose: 100.0 mg/kg/injection, schedule: Q01DX001 (ip), vehicle: saline with Tween-80
[15] = dose: 100.0 mg/kg/injection, schedule: Q04DX003 (ip), vehicle: saline with Tween-80
[16] = dose: 200.0 mg/kg/injection, schedule: Q01DX001 (ip), vehicle: saline with Tween-80
[17] = dose: 200.0 mg/kg/injection, schedule: Q04DX003 (ip), vehicle: saline with Tween-80
[18] = dose: 400.0 mg/kg/injection, schedule: Q04DX003 (ip), vehicle: saline with Tween-80

With O=C1c2cc(N=C(NO)C(F)(F)F)ccc2-c2ccc([N+](=O)[O-])cc21 the T/C [1] was 90 % of control, the T/C [2] was 90 % of control and the T/C [3] was 100 % of control.
Cc1cc(N(CCCl)CCCl)ccc1C=Nc1ccc(-c2csc(-c3ccccc3)n2)c(Cl)c1 was tested, and the T/C [1] was 98 % of control, the T/C [2] was 95 % of control and the T/C [3] was 107 % of control.
CN(C)Cc1ccccc1C(=O)C(c1ccccc1)c1ccccc1 was tested, and the T/C (dose: 55.0 mg/kg/injection, schedule: Q01DX Z (ip), vehicle: methylcellulose (MC)) was 100 % of control and the T/C (dose: 83.0 mg/kg/injection, schedule: Q01DX Z (ip), vehicle: methylcellulose (MC)) was 94 % of control.
In the case of CCOc1ccc(Br)cc1/C=C/C(C)=O, the T/C (dose: 100.0 mg/kg/injection, schedule: Q01DX009 (ip), vehicle: saline) is reported as 103 % of control, the T/C [4] is reported as 95 % of control and the T/C (dose: 200.0 mg/kg/injection, schedule: Q01DX009 (ip), vehicle: saline) is reported as 98 % of control. For the same compound, the T/C [5] was 111 % of control, the T/C (dose: 400.0 mg/kg/injection, schedule: Q01DX009 (ip), vehicle: saline) was 90 % of control and the T/C [6] was 97 % of control.
CC(=O)C(C=NCCN=CC(C(C)=O)C(C)=O)C(C)=O.[Ni] was tested, and the T/C [7] was 98 % of control and the T/C [8] was 98 % of control.
With O=NN(CCF)C(=O)Nc1ccccc1 the T/C (dose: 18.0 mg/kg/injection, schedule: Q01DX001 (ip), vehicle: other) was 160 % of control.
With CN(C)/C=N/NC(=O)C1CC1 the T/C [4] was 100 % of control, the T/C [5] was 97 % of control and the T/C [6] was 107 % of control.
In the case of CC1(C)OC(C(O)CO)C(C2COC(=S)O2)O1 (centres undefined), the T/C (dose: 100.0 mg/kg/injection, schedule: Q04DX002 (ip), vehicle: saline) is reported as 107 % of control, the T/C (dose: 200.0 mg/kg/injection, schedule: Q04DX002 (ip), vehicle: saline) is reported as 104 % of control and the T/C (dose: 400.0 mg/kg/injection, schedule: Q04DX002 (ip), vehicle: saline) is reported as 100 % of control.
For OCCN1CC1, the T/C (dose: 1.0 mg/kg/injection, schedule: Q01DX009 (ip), vehicle: saline) was 92 % of control, the T/C (dose: 1.56 mg/kg/injection, schedule: Q01DX009 (ip), vehicle: saline) was 100 % of control and the T/C (dose: 2.3 mg/kg/injection, schedule: Q01DX009 (ip), vehicle: saline) was 96 % of control. The T/C (dose: 3.12 mg/kg/injection, schedule: Q01DX009 (ip), vehicle: saline) was 120 % of control and the T/C (dose: 6.25 mg/kg/injection, schedule: Q01DX009 (ip), vehicle: saline) was 94 % of control.
For COc1ccccc1/C=N/NC(=O)c1cccc2ccccc12, the T/C [9] was 87 % of control.
With Cc1cc(C)c2ccc(NC(=O)CCC(=O)O)nc2n1 the T/C [10] was 95 % of control.
For CC1CCC2C(C)C3C(CC4C5CC=C6CC(OC7OC(COC8OC(CO)C(OC9OC(C)C(O)C(O)C9O)C(O)C8O)C(O)C(O)C7O)CCC6(C)C5CCC43C)N2C1 (centres undefined), the T/C (dose: 50.0 mg/kg/injection, schedule: Q04DX002 (ip), vehicle: Klucel (hydroxypropylcellulose) (HPC)) was 105 % of control and the T/C (dose: 100.0 mg/kg/injection, schedule: Q04DX002 (ip), vehicle: Klucel (hydroxypropylcellulose) (HPC)) was 102 % of control.
For CCc1ccccc1NC(=O)C(c1ccccc1)c1ccccc1, the T/C [11] was 100 % of control, the T/C (dose: 100.0 mg/kg/injection, schedule: Q04DX003 (ip), vehicle: Klucel (hydroxypropylcellulose) (HPC)) was 100 % of control and the T/C [12] was 105 % of control. The T/C (dose: 200.0 mg/kg/injection, schedule: Q04DX003 (ip), vehicle: Klucel (hydroxypropylcellulose) (HPC)) was 93 % of control, the T/C [13] was 96 % of control and the T/C (dose: 400.0 mg/kg/injection, schedule: Q04DX003 (ip), vehicle: Klucel (hydroxypropylcellulose) (HPC)) was 90 % of control.
O=C(CBr)Nc1ccc(C(=O)O)c(O)c1 was tested, and the T/C (dose: 12.5 mg/kg/injection, schedule: Q04DX003 (ip), vehicle: Klucel (hydroxypropylcellulose) (HPC)) was 103 % of control, the T/C (dose: 25.0 mg/kg/injection, schedule: Q04DX003 (ip), vehicle: Klucel (hydroxypropylcellulose) (HPC)) was 92 % of control and the T/C (dose: 50.0 mg/kg/injection, schedule: Q04DX003 (ip), vehicle: Klucel (hydroxypropylcellulose) (HPC)) was 92 % of control.
In the case of COC(=O)C1OC1c1ccc2ccccc2c1 (centres undefined), the T/C [11] is reported as 93 % of control, the T/C [12] is reported as 95 % of control and the T/C [13] is reported as 97 % of control.
In the case of CCOC(=O)C(c1cccc(OC)c1)C1(C(=O)OCC)CC2(CCC1=O)OCCO2 (centres undefined), the T/C [11] is reported as 93 % of control, the T/C [12] is reported as 95 % of control and the T/C [13] is reported as 88 % of control.
With CCC(CO)NC(=O)/C=C/c1ccccc1 (centres undefined) the T/C [14] was 101 % of control, the T/C [15] was 97 % of control and the T/C [16] was 94 % of control. For the same compound, the T/C [17] was 97 % of control, the T/C (dose: 400.0 mg/kg/injection, schedule: Q01DX001 (ip), vehicle: saline with Tween-80) was 100 % of control and the T/C [18] was 91 % of control.
For Nc1cc(S(=O)(=O)c2ccc(O)c(N)c2)ccc1O, the T/C (dose: 100.0 mg/kg/injection, schedule: Q01DX009 (ip), vehicle: saline with Tween-80) was 105 % of control, the T/C [15] was 103 % of control and the T/C (dose: 200.0 mg/kg/injection, schedule: Q01DX009 (ip), vehicle: saline with Tween-80) was 107 % of control. For the same compound, the T/C [17] was 104 % of control, the T/C (dose: 400.0 mg/kg/injection, schedule: Q01DX009 (ip), vehicle: saline with Tween-80) was 109 % of control and the T/C [18] was 97 % of control.
For CC1C(=O)OC2C1CCC1(C)C=CC(=O)C3(C)OC213 (centres undefined), the T/C (dose: 100.0 mg/kg/injection, schedule: Q01DX001 (ip), vehicle: Klucel (hydroxypropylcellulose) (HPC)) was 97 % of control, the T/C (dose: 200.0 mg/kg/injection, schedule: Q01DX001 (ip), vehicle: Klucel (hydroxypropylcellulose) (HPC)) was 94 % of control and the T/C (dose: 400.0 mg/kg/injection, schedule: Q01DX001 (ip), vehicle: Klucel (hydroxypropylcellulose) (HPC)) was 96 % of control.
In the case of CCCCCCCCC1OC1CCCCCCCC(N)=O (centres undefined), the T/C [7] is reported as 92 % of control, the T/C [8] is reported as 88 % of control and the T/C (dose: 400.0 mg/kg/injection, schedule: Q04DX002 (ip), vehicle: saline with Tween-80) is reported as 100 % of control.
In the case of CCCC[CH2][Sn](=[O])[CH2]CCCC, the T/C (dose: 12.5 mg/kg/injection, schedule: Q04DX003 (ip), vehicle: saline) is reported as 101 % of control, the T/C (dose: 25.0 mg/kg/injection, schedule: Q04DX003 (ip), vehicle: saline) is reported as 101 % of control and the T/C (dose: 50.0 mg/kg/injection, schedule: Q04DX003 (ip), vehicle: saline) is reported as 108 % of control. For the same compound, the T/C [10] was 109 % of control, the T/C (dose: 200.0 mg/kg/injection, schedule: Q01DX001 (ip), vehicle: saline) was 104 % of control and the T/C [9] was 98 % of control.
c1ccc(-c2c(-c3ccc4c(c3)OCO4)c(-c3ccc4c(c3)OCO4)c(-c3ccccc3)c3ccccc23)cc1 was tested, and the T/C [14] was 92 % of control and the T/C [16] was 100 % of control.
With CS(=O)(=O)O.[Cu+2] the T/C (dose: 5.0 mg/kg/injection, schedule: Q01DX001 (ip), vehicle: saline) was 93 % of control and the T/C (dose: 10.0 mg/kg/injection, schedule: Q01DX001 (ip), vehicle: saline) was 96 % of control.
With Nc1ncnc2c1c(-c1nn[nH]n1)cn2C1OC(CO)C(O)C1O (centres undefined) the T/C (dose: 12.5 mg/kg/injection, schedule: Q01DX005 (ip), vehicle: saline) was 121 % of control, the T/C (dose: 12.5 mg/kg/injection, schedule: Q01DX009 (ip), vehicle: saline) was 122 % of control and the T/C (dose: 50.0 mg/kg/injection, schedule: Q01DX005 (ip), vehicle: saline) was 108 % of control. For the same compound, the T/C (dose: 50.0 mg/kg/injection, schedule: Q01DX009 (ip), vehicle: saline) was 98 % of control.
